Results: patent US7122520B2, “Methods of modulating appetite using agouti-related transcript polypeptides” (Amgen Inc., priority 1996, dated 2006)
Ends that are not written are not given here.

Columns and labels:
food intake of rats = test: Feeding behavior of rats treated with ART (intracerebroventricular injection); assay type: in vivo, Long-Evans male rats
Experimental: Long-Evans male rats weighing 300–500 grams were chronically implanted in the brain with a 22 gauge cannula aimed at the lateral ventricle. The steriotaxic coordinates for the canulas were approximately: 0.8 mm anterior/posterior; 1.4 mm medial/lateral; and 3.5 mm dorsal/ventral. A 3.5 mm, 28 gauge stylet remained inside the implanted cannula until the animal was ready for an injection. ART peptide or control solutions were administered with a 28 gauge injector that extended about 1 mm beyond the tip of the cannula.
ART peptide was dissolved in PBS (pH about 7.0) and injected into the lateral ventricle at doses ranging from about 0.075 nmol to about 7.5 nmol in a volume of about 2 μl. Controls were PBS and an unfolded version of ART at about 7.5 nmol. Feeding measurements were taken from pre-weighed dishes containing a mixture of ground rodent chow, sugar, and condensed milk. (45%:28%:27%). Rats were offered this mixture along with their regular chow about 24 hours prior to injection. About one and one half hours prior to infusion, the regular chow was removed, but the rats were allowed to continue feeding on the sweetened mixture. Injections were done at 8:30 am or at 8:30 pm. Food intake was assessed by weighing the dishes over time at 90 minutes, 4 hours, 8 hours, 12 hours, and 24 hours after injection. 10–12 rats were used per group.

feeding response of rats = settings: injection into the brain of rats; cited from earlier work
MC1 receptor = target: T1, MC1 receptor (Mus musculus, UniProt Q01727); settings: B16F10 mouse melanoma cell cultures; cited from earlier work
T1 construct: at the MC1 receptor in B16F10 mouse melanoma cell cultures; endogenous in cells; host or cells: B16F10 mouse melanoma cells
T1 sequence (Q01727 whole entry): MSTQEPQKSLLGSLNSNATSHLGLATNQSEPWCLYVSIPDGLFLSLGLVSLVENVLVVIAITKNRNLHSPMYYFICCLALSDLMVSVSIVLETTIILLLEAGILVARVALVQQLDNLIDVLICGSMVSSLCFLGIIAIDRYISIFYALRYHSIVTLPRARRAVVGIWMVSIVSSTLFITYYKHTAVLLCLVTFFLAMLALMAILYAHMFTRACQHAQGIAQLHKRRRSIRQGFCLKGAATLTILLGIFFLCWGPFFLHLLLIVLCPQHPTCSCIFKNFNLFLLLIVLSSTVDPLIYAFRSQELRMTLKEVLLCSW

folded ART: synthetic peptide containing amino acids 79–132 of ART (SEQ ID NO:8), refolded in Tris-HCl/urea (REPRSSRRCVRLHESCLGQQVPCCDPCATCYCRFFNAFCYCRKLGTAMNPCSRT; cysteine pairing not given here; also: refolded)
food intake (cumulative amount of food consumed) (food intake of rats; injection into lateral ventricle, 0.075-7.5 nmol in about 2 μl, measured 90 minutes to 24 hours after injection, vs PBS and unfolded ART controls): increased their food intake as compared to controls | relation between amount of ART injected and amount of food eaten (food intake of rats; lateral ventricle, doses about 0.075 nmol to about 7.5 nmol): correlation between the amount of ART injected and the amount of food eaten

melanin concentrating hormone (DFDMLRCMLGRVYRPCWQV; ends and bridges not checked; cysteine pairing not given here; UniProt P20382 147-165, looked up) [MCH]
feeding response (feeding response of rats): stimulates a feeding response

B1: mouse agouti protein: 131 amino acid secreted protein encoded by the mouse agouti gene (protein, UniProt Q03288 23-131, looked up)
Agouti-signaling protein: HLALEETLGDDRSLRSNSSMNSLDFSSVSIVALNKKSKKISRKEAEKRKRSSKKKASMKKVARPPPPSPCVATRDSCKPPAPACCDPCASCQCRFFGSACTCRVLNPNC
antagonism of a-MSH at the MC1 receptor (MC1 receptor): potent antagonist
